Source: patent publication US10968203B2, “Pyrimidinyl-pyridyloxy-naphthyl compounds and methods of treating IRE1-related diseases and disorders” (Genentech, Inc., priority 2017, dated 2021)
Where a name gives a salt, the structure may show the parent alone. Read-outs that look alike come from different tables or passages of the source.

Tested on: XBP1s-luc 293 LUC
Test: cellular PD assay, XBP1s-LUC reporter (Example 903)
Type: cell-based
Details: read-out: XBP1s-luc 293 LUC (IC50)
Experimental: Inhibition of IRE1α RNase activity was determined in an enzyme assay that measured cleavage of the XBP1 stem loop by autophosphorylated IRE1α. This assay format was chosen to ensure that inhibitors of either the IRE1α kinase or the RNase domains would be identified. Binding to the ATP pocket and inhibition of IRE1α kinase activity are not necessarily required to inhibit the RNase activity. Compounds were also profiled in cellular assays by direct measurement of XBP s (B-DNA assay) or by quantification of the luciferase signal in HT1080 XBP1-Luc, which carries a luciferase fusion that is only in frame and expressed from the spliced XBP1 transcript.
Biological activity of Formula I or I′ compounds was measured by an IRE1 biochemical binding assay (Example 901), a biochemical RNase assay (Example 902), a cellular PD assay, XBP1s-LUC reporter (Example 903), and an IRE1α-based inhibition of multiple myeloma (MM) cell proliferation assay.
All of the exemplary Formula I or I′ compounds in Tables 1 and 2 were made and characterized by LCMS [M+H]^+ (liquid chromatography mass spectroscopy) with detection of parent ion. All of the exemplary Formula I compounds in Tables 1 and 2 were prepared according to the procedures of the Schemes, General Procedures, and Examples. All of the exemplary Formula I or I′ compounds in Tables 1 and 2 were tested for binding to IRE1 (inositol requiring enzyme 1 alpha) and biological activity according to the assays and protocols of Example 901-903. Exemplary Formula I or I′ compounds in Tables 1 and 2 have the following structures, corresponding IUPAC names (ChemBioDraw, Version 12.0.2, CambridgeSoft Corp., Cambridge Mass.), and biological activity. Where more than one name is associated with a Formula I or I′ compound or intermediate in Tables 1 and 2 and the Experimental Procedures, the chemical structure shall define the compound. Assignment of configuration at chiral centers in separated stereoisomers may be tentative, and depicted in Tables 1 and 2 structures for illustrative purposes, before stereochemistry is definitively established, such as from x-ray crystallographic data. In some cases, stereoisomers are separated and tested for biological activity before the stereochemistry of the separated stereoisomers is determined; and stereochemistry in some instances was inferred based on structure-activity relationship (SAR) knowledge from previous compounds. In some cases, the compounds are tested as racemic or diastereomeric mixtures. Where more than one potency value is entered on a row, separated stereoisomers represented by the structure and name on that row were tested. Exemplary compounds of Formula I or I′ in Table 3 can be prepared using methods known in the art or according to procedures similar to those described in the Schemes, General Procedures, and Examples 101-500. Biological activities of compounds in Table 3 can be tested in biological assays, for example, those in Examples 901, 902 and 903 described herein.

Cc1ccc2c(NCC(O)C(C)C)cccc2c1Oc1ncccc1-c1ccnc(N[C@H]2CCCNC2)n1 (mixture of isomers) [Example 200, 3-Methyl-1-((6-methyl-5-((3-(2-((S)-piperidin-3-ylamino)pyrimidin-4-yl)pyridin-2-yl)oxy)naphthalen-1-yl)amino)butan-2-ol]
IC50 (Table 1): 0.077 µM

Cc1ccc2c(N3C(=O)CCC3C)cccc2c1Oc1ncccc1-c1ccnc(N[C@H]2CCCNC2)n1 (mixture of isomers) [Example 237, 5-Methyl-1-(6-methyl-5-((3-(2-((S)-piperidin-3-ylamino)pyrimidin-4-yl)pyridin-2-yl)oxy)naphthalen-1-yl)pyrrolidin-2-one]
IC50 (Table 1): 0.472 µM

Cc1ccc2c(N3CCC(C)S3(=O)=O)cccc2c1Oc1ncccc1-c1ccnc(N[C@H]2CCCNC2)n1 (mixture of isomers) [Example 245, 5-Methyl-2-(6-methyl-5-((3-(2-((S)-piperidin-3-ylamino)pyrimidin-4-yl)pyridin-2-yl)oxy)naphthalen-1-yl)isothiazolidine 1,1-dioxide]
IC50 (Table 1): 0.294 µM

Cc1ccc2c(NC(=O)C3CC34CCCCC4)cccc2c1Oc1ncccc1-c1ccnc(N[C@H]2CCCNC2)n1 (mixture of isomers) [Example 281, N-(6-Methyl-5-((3-(2-(((S)-piperidin-3-yl)amino)pyrimidin-4-yl)pyridin-2-yl)oxy)naphthalen-1-yl)spiro[2.5]octane-1-carboxamide]
IC50 (Table 1): 0.089 µM

Cc1ccc2c(NC(=O)C3CC34CCOC4)cccc2c1Oc1ncccc1-c1ccnc(N[C@H]2CCCNC2)n1 (mixture of isomers) [Example 289, N-(6-Methyl-5-((3-(2-(((S)-piperidin-3-yl)amino)pyrimidin-4-yl)pyridin-2-yl)oxy)naphthalen-1-yl)-5-oxaspiro[2.4]heptane-1-carboxamide]
IC50 (Table 1): 0.431 µM

Cc1ccc2c(N3CCCC(C)C3=O)cccc2c1Oc1ncccc1-c1ccnc(N[C@H]2CCCNC2)n1 (mixture of isomers) [Example 354, 3-Methyl-1-(6-methyl-5-((3-(2-((S)-piperidin-3-ylamino)pyrimidin-4-yl)pyridin-2-yl)oxy)naphthalen-1-yl)piperidin-2-one]
IC50 (Table 1): 0.318 µM

Cc1ccc2c(NC3CCCC3O)cccc2c1Oc1ncccc1-c1ccnc(N[C@H]2CCCNC2)n1 (mixture of isomers) [Example 383, anti-2-((6-Methyl-5-((3-(2-((S)-piperidin-3-ylamino)pyrimidin-4-yl)pyridin-2-yl)oxy)naphthalen-1-yl)amino)cyclopentanol]
IC50 (Table 1): 0.231 µM

Cc1ccc2c(NCCC(C)O)cccc2c1Oc1ncccc1-c1ccnc(N[C@H]2CCCNC2)n1 (mixture of isomers) [Example 390, 4-((6-Methyl-5-((3-(2-((S)-piperidin-3-ylamino)pyrimidin-4-yl)pyridin-2-yl)oxy)naphthalen-1-yl)amino)butan-2-ol]
IC50 (Table 1): 0.143 µM

CCC(C)CS(=O)(=O)Nc1c(F)ccc2c(Oc3ncccc3-c3ccnc(N[C@H]4CCCNC4)n3)c(C)ccc12 (mixture of isomers) [Example 409, N-(2-Fluoro-6-methyl-5-((3-(2-(((S)-piperidin-3-yl)amino)pyrimidin-4-yl)pyridin-2-yl)oxy)naphthalen-1-yl)-2-methylbutane-1-sulfonamide]
IC50 (Table 2): 0.025 µM

Cc1ccc2c(NCC(F)CF)cccc2c1Oc1ncccc1-c1ccnc(N[C@H]2CCCNC2)n1 (mixture of isomers) [Example 460, 4-[2-[[5-(2,3-Difluoropropylamino)-2-methyl-1-naphthyl]oxy]-3-pyridyl]-N-[(3S)-3-piperidyl]pyrimidin-2-amine hydrochloride]
IC50 (Table 2): 0.092 µM

Cc1ccc2c(NS(=O)(=O)CC3CC3(F)F)c(F)ccc2c1Oc1ncccc1-c1ccnc(N[C@H]2CCCNC2)n1 (mixture of isomers) [Example 467, 1-(2,2-Difluorocyclopropyl)-N-(2-fluoro-6-methyl-5-((3-(2-((S)-piperidin-3-ylamino)pyrimidin-4-yl)pyridin-2-yl)oxy)naphthalen-1-yl)methanesulfonamide hydrochloride]
IC50 (Table 2): 0.042 µM
